# Laboratory results reported in patent publication US5387518A, “Alkaline protease having stability in solution with anionic surfactant, method for producing the same, use thereof and microorganism producing the same” (priority 1991, dated 1995).
# Like-named read-outs stand apart in the source and are kept apart here.
# Tested on: alkaline protease API-25 produced by Bacillus sp. SD523 (Bacillus firmus, FERM BP-3774)
# Format: biochemical
# Method: To 500 μl of a 50 mM Atkins-Pantin phosphate buffer solution (pH 10) is added 50 μl of an enzyme solution diluted appropriately, and the resulting mixture is preincubated at 30° C. for 3 to 5 minutes. Then, 500 μl of a 2% Hammerstein casein solution (pH 10) is added to the solution, and after 10 minutes 2 ml of TCA solution (0.132M TCA, adjusted to pH 4 with an acetate buffer solution) is added thereto to stop the reaction. After leaving it to stand at 30° C. for 10~15 minutes, the mixture is filtered using No. 2 filter paper (produced by Toyo Filter Paper Co., Ltd.). To 1 ml of the filtrate solution are added 5 ml of 0.4M sodium carbonate and 1 ml of 6-fold diluted phenol reagent. After leaving the mixture to stand at 30° C. for 20 minutes for color development, its optical density is measured at 660 nm.
# Influence of various inhibitors against the enzyme of the present invention is examined under the conditions and by the method described below.
# Enzyme solutions containing the enzyme of the present invention in a concentration of 20 nkatal/ml are prepared using a 50 mM borate buffer solution (pH 10), respectively. Various inhibitors in concentrations as shown in Table 11 are added to the enzyme solutions, respectively. After incubating the resulting mixtures at 30° C. for 30 minutes, the residual activity of the enzyme in the mixtures is measured. Results obtained are shown in Table 11, in which the activity is expressed in terms of relative activity assuming that the activity in the absence of inhibitors is 100%.
# [1] = inhibitor 1 mM, enzyme 20 nkatal/ml in 50 mM borate buffer pH 10, incubated 30° C. for 30 minutes, activity in the absence of inhibitors = 100%
# [2] = inhibitor 10 mM, enzyme 20 nkatal/ml in 50 mM borate buffer pH 10, incubated 30° C. for 30 minutes, activity in the absence of inhibitors = 100%
smiles,measurement,setting,value
"O=C(O)CN(CCN(CC(=O)O)CC(=O)O)CC(=O)O [EDTA, Ethylenediaminetetraacetic acid]",Residual Activity (%),pH 10,104%
"O=C(O)c1cc[c]([Hg][Cl])cc1 [PCMB, pChloromercuribenzoic acid]",Residual Activity (%),[1],98%
same,Residual Activity (%),[2],90%
"O=S(=O)(F)Cc1ccccc1 [PMSF, Phenylmethanesulfonyl fluoride]",Residual Activity (%),[1],31%
same,Residual Activity (%),[2],0.7%
same,Inhibition of the enzyme (in words),"summary of Table 11, reveals that the enzyme is a serine protease",inhibited by phenylmethanesulfonyl fluoride (PMSF) considerably
